Results: paper PMC9525273 (Nature Communications, 2022)
Where “and” joins values, the source holds several entries; their conditions need not be identical. Equal values may be shown once. Entries after “also recorded” stand apart in the source; their conditions may differ. Read-outs that look alike come from different tables or passages of the source.

Experiments:
Type in all cases: cell-based, Plasmodium falciparum
[1] = test system: parasite lines with a G358S mutation in PfATP4; assay: P. falciparum proliferation assays, statements on all lines with the G358S mutation; conditions: G358S lines vs PfATP4 wild-type controls
Protocol: (§1) Two types of parasite proliferation assays were employed in this study, with both yielding highly consistent results. For the NF54-based lines and Dd2-B2-PfATP4^G358S and its parent, assays were initiated with cultures containing predominantly ring-stage parasites with a parasitaemia of 0.3% and a haematocrit of 1%. All assays using NF54 were performed in culture media containing 10% O + human serum. The duration of the assays was 72 h and the concentration of DMSO was <0.5% (v/v). Serial dilutions of the test compounds were performed using a Tecan D300e digital dispenser, with parasite cultures added manually. Parasite survival was assessed by flow cytometry on an Intellicyt iQue3 (Essen Bioscience), with 1× SYBR Green I (Invitrogen) and 200 nM MitoTracker Deep Red FM (Invitrogen) used to stain the nucleus and the mitochondria in live parasites, respectively. The gating strategy used to quantify parasite survival, performed using FlowJo version 10 (FlowJo LLC.), is illustrated in Supplementary Fig. 9. IC50 and IC90 values were calculated by linear interpolation of the dose-response data.
(§2) For experiments with all other parasites, the effects of compounds of interest on parasite proliferation was measured in 96-well plates containing serial dilutions of the compounds in culture medium, with a fluorescent DNA-intercalating dye used to detect surviving parasites. The assays were initiated with erythrocytes infected with predominantly ring-stage parasites, and the starting parasitaemia and haematocrit were both 1%. […] Fluorescence was measured using a FLUOstar OPTIMA plate reader (BMG LABTECH), with OPTIMA version 2.20R2 and MARS Data Analysis Software version 3.01 R2 (BMG LABTECH).

[2] = test system: gene-edited NF54 lines (NF54^CTL, NF54^G358S-1, NF54^G358S-2); assay: P. falciparum proliferation assay, statements on several edited NF54 lines; conditions: all edited NF54 lines, including NF54CTL, vs NF54WT
Protocol: as §1

[3] = test system: NF54^CTL parasites; assay: P. falciparum proliferation assay (72 h, flow cytometry, SYBR Green I/MitoTracker); conditions: for FC (IC50) / FC (IC90): NF54CTL compared to NF54WT
Protocol: as §1, with “For” for “Two types of parasite proliferation assays were employed in this study, with both yielding highly consistent results. For”

[4] = test system: NF54^G358S-1 parasites; assay: as above; conditions: for FC (IC50) / FC (IC90): NF54G358S-1 compared to NF54WT
Protocol: as §1, with “For” for “Two types of parasite proliferation assays were employed in this study, with both yielding highly consistent results. For”

[5] = test system: NF54^G358S-2 parasites; assay: as above; conditions: for FC (IC50) / FC (IC90): NF54G358S-2 compared to NF54WT
Protocol: as §1, with “For” for “Two types of parasite proliferation assays were employed in this study, with both yielding highly consistent results. For”

[6] = test system: NF54^WT parasites; assay: microbe, parasite or virus in culture; conditions: for FC (IC50) / FC (IC90): NF54WT, reference line
Protocol: as §1, with “For” for “Two types of parasite proliferation assays were employed in this study, with both yielding highly consistent results. For”

[7] = test system: MMV665949-selected Culture 1 (from Dd2-Polδ; not cloned); assay: P. falciparum proliferation assay (72 h, fluorescent DNA-intercalating dye); conditions: n = 4
Protocol: as §2

[8] = test system: Dd2-Polδ-PfATP4^G358S parasites; assay: as above
Protocol: (§3) For experiments with all other parasites, the effects of compounds of interest on parasite proliferation was measured in 96-well plates containing serial dilutions of the compounds in culture medium, with a fluorescent DNA-intercalating dye used to detect surviving parasites. The assays were initiated with erythrocytes infected with predominantly ring-stage parasites, and the starting parasitaemia and haematocrit were both 1%.

[9] = test system: Dd2-Polδ parasites; assay: as above
Protocol: as §3

[10] = NF54CTL parasites, individual experiments, read-out: IC50 values
[11] = NF54CTL parasites, individual experiments, read-out: IC90 values
[12] = Plasmodium falciparum, NF54, NF54CTL parasites, individual experiments, read-out: IC50 values
[13] = Plasmodium falciparum, NF54, NF54CTL parasites, individual experiments, read-out: IC90 values
[14] = Plasmodium falciparum, NF54, NF54CTL parasites, mean of the experiments, read-out: IC50 values, MEAN
[15] = Plasmodium falciparum, NF54, NF54CTL parasites, mean of the experiments, read-out: IC90 values, MEAN
[16] = NF54G358S-1 parasites, individual experiments, read-out: IC50 values
[17] = NF54G358S-1 parasites, individual experiments, read-out: IC90 values
[18] = Plasmodium falciparum, NF54, NF54G358S-1 parasites, individual experiments, read-out: IC50 values
[19] = Plasmodium falciparum, NF54, NF54G358S-1 parasites, individual experiments, read-out: IC90 values
[20] = Plasmodium falciparum, NF54, NF54G358S-1 parasites, mean of the experiments, read-out: IC50 values, MEAN
[21] = Plasmodium falciparum, NF54, NF54G358S-1 parasites, mean of the experiments, read-out: IC90 values, MEAN
[22] = NF54G358S-2 parasites, individual experiments, read-out: IC50 values
[23] = NF54G358S-2 parasites, individual experiments, read-out: IC90 values
[24] = Plasmodium falciparum, NF54, NF54G358S-2 parasites, individual experiments, read-out: IC50 values
[25] = Plasmodium falciparum, NF54, NF54G358S-2 parasites, individual experiments, read-out: IC90 values
[26] = Plasmodium falciparum, NF54, NF54G358S-2 parasites, mean of the experiments, read-out: IC50 values, MEAN
[27] = Plasmodium falciparum, NF54, NF54G358S-2 parasites, mean of the experiments, read-out: IC90 values, MEAN
[28] = NF54WT parasites, individual experiments, read-out: IC50 values
[29] = NF54WT parasites, individual experiments, read-out: IC90 values
[30] = Plasmodium falciparum, NF54, NF54WT parasites, mean of the experiments, read-out: IC50 values, MEAN
[31] = Plasmodium falciparum, NF54, NF54WT parasites, mean of the experiments, read-out: IC90 values, MEAN

Row | Structure (SMILES) | effect of the G358S mutation in PfATP4 on parasite susceptibility [1] | FC (IC50) [3] [fold] | FC (IC90) [3] [fold] | IC50 [3, 10] | IC90 [3, 11] | IC50 [3, 12] [nM] | IC90 [3, 13] [nM] | IC50 [3, 14] [nM] | IC90 [3, 15] [nM] | FC (IC50) [4] [fold] | FC (IC90) [4] [fold] | IC50 [4, 16] | IC90 [4, 17] | IC50 [4, 18] [nM] | IC90 [4, 19] [nM] | IC50 [4, 20] [nM] | IC90 [4, 21] [nM] | FC (IC50) [5] [fold] | FC (IC90) [5] [fold] | IC50 [5, 22] | other results
1 | COc1nc(C(C)C)ccc1-c1cnc2sc(N3CCC(O)(CN)CC3)nn12 [INE963] | no impact; also recorded: no effect | 1.5 | 1.3 | 1.15 nM and 1.14 nM and 1.42 nM | 2.46 nM and 2.4 nM and 3.34 nM | 1.02 | 1.87 | 1.18 | 2.5 | 1.4 | 1.4 | 1.09 nM and 1.1 nM and 1.41 nM | 2.82 nM and 2.85 nM and 3.37 nM | 0.91 | 1.87 | 1.13 | 2.7 | 1.4 | 1.4 | 1.11 nM and 0.93 nM and 1.44 nM | fold increase in IC50 value [2]: 1.4-1.5 fold; IC50 ([3]; Plasmodium falciparum, NF54, NF54CTL, 10% human serum, read-out: IC50 ± SEM): 1.2 ± 0.1 nM; IC90 [5, 23]: 2.37 nM and 2.77 nM and 3.43 nM; IC50 [5, 24]: 1.1 nM; IC90 [5, 25]: 2.11 nM; IC50 [5, 26]: 1.15 nM; IC90 [5, 27]: 2.7 nM; IC50 [6, 28]: 0.63 nM and 0.74 nM and 1.17 nM; IC90 [6, 29]: 1.68 nM and 1.36 nM and 1.75 nM and 2.98 nM; FC (IC50) [6]: 1.0 fold; FC (IC90) [6]: 1.0 fold; IC50 ([6]; Plasmodium falciparum, NF54, NF54WT parasites, individual experiments, read-out: IC50 values): 0.7 nM; IC50 [6, 30]: 0.81 nM; IC90 [6, 31]: 1.9 nM; IC50 ([6]; Plasmodium falciparum, NF54, NF54WT, 10% human serum, read-out: IC50 ± SEM): 0.8 ± 0.1 nM
2 | Oc1ccc(C(=C(Cl)Cl)c2ccc(O)cc2)cc1 [MMV665949] | – | – | – | – | – | – | – | – | – | – | – | – | – | – | – | – | – | – | – | – | IC50 fold higher than for parental Dd2-Polδ ([7]; MMV665949-selected Culture 1, paired experiments): 10.7 ± 2.0 fold; IC50 ([7]; MMV665949-selected Culture 1, mean ± SEM, read-out: IC50): 44000 ± 7000 nM; IC50 fold higher than that of Dd2-Polδ parent ([8]; Dd2-Polδ-PfATP4G358S vs Dd2-Polδ, mean ± SEM): no significant change; IC50 ([8]; Dd2-Polδ-PfATP4G358S, Supplementary Table 1, Set 2, read-out: Mean IC50 value ± SEM for growth inhibition): 4870 ± 880 nM; IC50 ([9]; Dd2-Polδ, Supplementary Table 1, Set 2, read-out: Mean IC50 value ± SEM for growth inhibition): 4270 nM; IC50 ([9]; parental Dd2-Polδ, paired with MMV665949-selected Culture 1, n = 4, read-out: IC50): 4300 ± 700 nM
3 | COc1ccc2nc3cc(Cl)ccc3c(Nc3cc(CN4CCCC4)c(O)c(CN4CCCC4)c3)c2n1 [Pyronaridine] | no effect | 1.2 | 1.1 | 1.43 nM and 1.8 nM and 1.81 nM | 2.8 nM and 2.91 nM | 1.47 | 2.85 | 1.6 | 2.86 | 1.3 | 1.1 | 1.77 nM and 2.02 nM and 2.17 nM | 2.9 nM and 3.07 nM and 3.12 nM | 1.24 | 2.64 | 1.8 | 2.93 | 1.2 | 1.1 | 1.86 nM and 1.73 nM and 2.02 nM | IC90 ([3]; Plasmodium falciparum, NF54, NF54CTL, 10% human serum, read-out: IC90 ± SEM): 2.9 ± 0.02 nM; IC90 [5, 23]: 2.89 nM and 2.85 nM and 2.91 nM; IC90 ([5]; Plasmodium falciparum, NF54, NF54G358S-2, 10% human serum, read-out: IC90 ± SEM): 2.8 ± 0.1 nM; IC50 [5, 24]: 1.25 nM; IC90 [5, 25]: 2.63 nM; IC50 [5, 26]: 1.7 nM; IC90 [5, 27]: 2.82 nM; IC50 [6, 28]: 0.91 nM and 1.08 nM and 1.42 nM and 2.14 nM; IC90 [6, 29]: 1.44 nM and 2.14 nM and 2.78 nM and 4.07 nM; FC (IC50) [6]: 1.0 fold; FC (IC90) [6]: 1.0 fold; IC50 [6, 30]: 1.4 nM; IC90 [6, 31]: 2.61 nM; IC90 ([6]; Plasmodium falciparum, NF54, NF54WT, 10% human serum, read-out: IC90 ± SEM): 2.6 ± 0.6 nM
